As usually defined, the IC50 is the concentration at which inhibition is half-maximal.

Where two headings read alike, the source gives them in different places. Where only a bound is given, the exact number is not on record here.

The results in this text go back to patent US9687480B2, “Chiral 1-(4-methylphenylmethyl)-5-oxo-{N-[(3-t-butoxycarbonyl-aminomethyl)]-piperidin-1-yl)-pyrrolidine as inhibitors of collagen induced platelet activation and adhesion” (Council of Scientific & Industrial Research, priority 2011, dated 2017).

For one data set, the system named is hamster platelets. Nature of the data set: Platelet adhesion on collagen coated surface (hyperlipidemic hamster model, ex vivo). The data set is classed as in vivo, hamsters. The settings on record: for Platelet adhesion hyperlipidemic hamsters: Table 2 summary; for platelet adhesion over collagen coated surface: hyperlipidemic hamsters, ex vivo. The procedure:
Platelet adhesion to collagen was measured in polystyrene 96-well micro titer plates. Micro titer plates were coated with insoluble equine tendon native fibrillar type I collagen (Chrono-Log Corp. Havertown, USA), 2 μg/well in 5 mM acetic acid (Tandon N N, Ockenhouse C F, Greco […]. Adhesive functions of platelet lacking GPIV (CD36). Blood 1991; 78: 2809-13) overnight at 4° C. The unoccupied protein binding sites on the wells were blocked with 0.5% BSA in Tyrode's-HEPES buffer (136.7 mM NaCl, 13.8 mM NaHCO3. 0.36 mM NaH2PO4.H2O, 2.6 mM KCl, 1.0 mM MgCl2.6H2O, 5.5 mM glucose, pH 7.4) at room temperature for 1 hour, and then rinsed once with PBS. Washed platelets were suspended in the Tyrode's-HEPES buffer and added to the wells (2×10^7 cells/well) for 1 h at room temperature. After three washes with PBS, the number of adherent platelets was evaluated colorimetrically (Bellavite P., Andrioli G., Gizzo P., Arigliano P., Chirumbolo […] colorimetric method for the measurement of platelet adhesion in microtiter plates. Anal. Blochem. 1994; 216:444-450). Briefly, 150 μl of a 0.1 M citrate buffer (pH 5.4), containing 5 mM p-nitrophenyl phosphate and 0.1% TritonX-100 was added to the wells after washing. After incubation for 30 minutes at 25° C. in the absence of ambient light, colour was developed by the addition of 100 μl of 2N NaOH and the absorbance at 405 nm was read using a microplate reader (Powerware XS, Biotek, USA).

The test system of data set [1] is mice. Nature of the data set: Tail bleeding time in mice. The data set is classed as in vivo. The settings on record: for Bleeding Time in mice: Table 2 summary; for prolongation in bleeding time: 30 μM/kg, 1 hr p.o. dosing. The method, then:
Bleeding time in mice was evaluated by the method of Dejana et al, (Dejana E, Callioni A, Quintana A, Gaetano G. Bleeding time in laboratory animals. II—A comparison of different assay conditions in rats. […] The time elapsed from the tip incision to the stoppage of bleeding was determined as the bleeding time. The preferred compounds, aspirin (30 mg/kg) or vehicle was given orally 60 min prior to the tail incision in a group of 5 mice each.

The test system of data set [2] is human platelet rich plasma (collagen induced aggregation). Nature of the data set: Collagen induced platelet aggregation, human platelet rich plasma (in vitro). The settings on record: for IC50: human PRP, collagen 2 μg/ml, read-out: Collagen induced platelet aggregation studies (Human) IC50; for activity against collagen induced aggregation: in vitro, human platelet rich plasma. The data set is classed as cell-based. The method, then: The reaction was allowed to proceed for at least 5 min, and the extent of aggregation was expressed in light-transmission units (Ivandic B T, Schlick P, Starltz P, Kurz K, Katas H A, Giannitsis E. Determination of clopidogrel resistance by whole blood platelet aggregometry and inhibitors of the P2Y12 receptor. Clinical Chemistry 2006: 52:383-88).
The percentage of aggregation was calculated by using following formula: Percent Aggregation=A/B×100 Where, A is the number of division traversed by the label on chart in the presence of Inducer & B is the total number of divisions (80). Platelet Aggregation Studies (FIG. 3) a) Platelet Aggregation (Human, In Vitro) (FIG. 3a (i) (ii) (iii))

Data set [3] deals with mice. Nature of the data set: Collagen-epinephrine induced pulmonary thromboembolism in mice. The data set is classed as in vivo. The settings on record: Table 2 summary; how long protection lasts. The text has this: To assess the antithrombotic efficacy of Compounds, mice were divided into vehicle, aspirin and Compounds treated groups, and each group included ten animals. […] Results have been reported as percentage protection, which represents protection against collagen and epinephrine induced thrombosis and expressed as: Percent Protection=(1-([…]-number of animals paralyzed/dead in test compound-treated group; Pcontrol-number of animals paralyzed/dead in vehicle treated group. Collagen Epinephrine Induced Pulmonary Thromboembolism (FIG. 1): […]

Another data set has as its system rats. Nature of the data set: Arterio-venous shunt model in rats. The class given is in vivo. Conditions: for Arterio-venous shunt model in rat: Table 2 summary; for thrombus weight: rats, given 1 hr prior to shunt. The text has this: Rats were grouped into control, aspirin and test compound group, each group having six animals. Rats were anesthetized with urethane (1.25 g/kg). Cervical incision was made and carotid artery and its contra lateral jugular vein was exposed to prepare a shunt by using polyethylene tubes. Two 7 cm siliconized polyethylene tubes (0.5/1.0 mm inner/outer diameter) were linked to a central 6 cm silicon tube (1.0/1.5 mm, inner/outer diameter) containing a 5 cm silk thread (pre-weighed) and were filled with saline. The shunt assembly was cannulated between the jugular vein and contra-lateral carotid artery and blood was allowed to circulate through the shunt. Blood flow through the shunt was maintained for 10 minutes, subsequently the central part of the shunt was removed and silk thread having thrombus deposit was taken out and weighed. The thrombus adhered/deposited on thread was calculated by subtracting the wet weight of the silk thread. The standard drugs and test compounds were given 1 hr prior to the establishment of arterio-venous shunt (Tohti I, Tursun M, Umar A, Turdi S, Imin H, Moore N. Aqueous extracts of Ocimum basilicum L. (sweet basil) decrease platelet aggregation induced by ADP and thrombin in vitro and rats arterio-venous shunt thrombosis in vivo. Thrombosis Res. 2006; 118: 733-739).

Another data set deals with hyperlipidemic hamsters. Nature of the data set: FeCl3 induced thrombosis in hyperlipidemic hamsters. The class given is in vivo. The settings on record: for time to occlusion (TTO): HCHF fed hamsters. The procedure:
HCHF treated hamsters were anesthetized by urethane (1.25 g/kg, i.p.). The carotid artery was carefully dissected and a pulsed Doppler Probe (DBF-120A-CPx, CBI-8000, Crystal Biotech. USA) was placed around it to record the blood flow velocity and potency of the blood vessels. The carotid artery thrombosis was induced by FeCl3 as follows: a square (1×1 mm) of Whatman Chromatography paper was immersed in 30% FeCl3 solution for 5 min and placed on the carotid artery as described earlier (Kurz K D, Main B W, Sandusky G E. Rat model of arterial thrombosis induced by ferric chloride. Thromb Res 1990; 60(4):269-80). Thrombosis was monitored as the reduction in carotid artery blood flow. The time at which the blood-flow velocity was decreased to zero was recorded as the total of occlusion of the vessel.

The target of the next data set is T1, human α-thrombin (Homo sapiens, UniProt P00734).
T1 construct: amidolytic activity of human α-thrombin using fluorogenic substrate
Nature of the data set: Amidolytic assay of thrombin activity (fluorogenic substrate). The class given is biochemical. The settings on record: compound 1 at 300 μM and 1 mM after 15 min of substrate incubation.

Consider “1-(4-methylphenylmethyl)-5-oxo-{N-[(3-t-butoxycarbonyl-aminomethyl)]-piperidin-1-yl}-pyrrolidine-2-carboxamides [Compound 1]”, for which the “Platelet adhesion hyperlipidemic hamsters” value in the data set on hamster platelets is listed as “Effective”. For the same molecule, the “Bleeding Time in mice” value in the data set on mice [1] is 2 fold. Further, the IC50 in data set [2] is around 10 µM. Besides, the “Collagen-epinephrine induced thrombosis in mice (duration of effect)” value (from here on “Collagen-epinephrine induced thrombosis”) in the data set on mice [3] was “Up to 18 hrs”. Also, the “Arterio-venous shunt model in rat” value in the data set with rats is “Protective”.
`Cc1ccc(CN2C(=O)CC[C@H]2C(=O)N2CCCC(CNC(=O)OC(C)(C)C)C2)cc1` (stereo partly drawn) [Compound 1, 1-(4-methylphenylmethyl)-5-oxo-{N-[(3-t-butoxycarbonyl-aminomethyl)]-piperidin-1-yl}-pyrrolidine-2-carboxamides]: the “platelet adhesion over collagen coated surface” value with hamster platelets is recorded as “significant reduction”. Moreover, the “time to occlusion (TTO)” value with hyperlipidemic hamsters was “remained ineffective”. Further, the “prolongation in bleeding time” value in the data set with mice [1] is reported as “approximately 1.5 fold”. Moreover, the thrombin amidolytic activity entry on human α-thrombin is given as “significant inhibitory effect”. Besides, the “activity against collagen induced aggregation” value in data set [2] is reported as “active”.
On to `Cc1ccc(CN2C(=O)CC[C@H]2C(=O)N2CCC[C@@H](CNC(=O)OC(C)(C)C)C2)cc1` [Compound 6], for which, in the data set with hamster platelets, the “Platelet adhesion hyperlipidemic hamsters” value is on record as “Effective” and the “platelet adhesion over collagen coated surface” value was “significant inhibition”. The “time to occlusion (TTO)” value in the data set with hyperlipidemic hamsters is “significantly increased”. Besides, in the data set with hyperlipidemic hamsters (Table 2 summary), the “Ferric chloride induced thrombosis in hyperlipidemic hamsters” value was “Protective”. Also, in the data set with mice [1], the “prolongation in bleeding time” value was “approximately 1.5 fold” and the “Bleeding Time in mice” value was 1.5 fold. Also, on human α-thrombin, the thrombin amidolytic activity result is on record as “remained ineffective”. In addition, in data set [2] (Platelet), the IC50 was around 10 µM. In addition, the “activity against collagen induced aggregation” value in data set [2] is recorded as “active”. For the same molecule, the “Collagen-epinephrine induced thrombosis” value in the data set with mice [3] is above 24 h. For the same molecule, in the data set on rats, the “Arterio-venous shunt model in rat” value is “Protective” and the thrombus weight entry is recorded as “reducing the thrombus weight significantly”.
For the molecule `Cc1ccc(CN2C(=O)CC[C@H]2C(=O)N2CCC[C@H](CNC(=O)OC(C)(C)C)C2)cc1` [Compound 7, (2S)-1-(4-methylphenylmethyl)-5-oxo-(3R)-{N-[(3-t-butoxycarbonyl-aminomethyl)]-piperidin-1-yl}-pyrrolidine-2-carboxamide], in the data set on hamster platelets, the “Platelet adhesion hyperlipidemic hamsters” value is given as “No effect” and the “platelet adhesion over collagen coated surface” value is “no effect”. Moreover, the “time to occlusion (TTO)” value in the data set with hyperlipidemic hamsters is “remained ineffective”. For the same molecule, in the data set with mice [1], the “prolongation in bleeding time” value is “approximately 1.5 fold” and the “Bleeding Time in mice” value is on record as 1.5 fold. Moreover, the thrombin amidolytic activity entry at human α-thrombin was “actively attenuated”. Further, in data set [2] (Platelet), the half-inhibitory concentration (IC50) was above 10 µM. Besides, in data set [2], the “activity against collagen induced aggregation” value was “active”. The “Collagen-epinephrine induced thrombosis” value in the data set on mice [3] was below 12 h. In addition, in the data set on rats, the “Arterio-venous shunt model in rat” value was “Protective” and the thrombus weight entry is recorded as “reducing the thrombus weight significantly”.
